Values of other authors in patent publication US10842782B2, “Storage stable composition comprising rifaximin alpha” (Sandoz AG, priority 2016, dated 2020).

Conditions: single 400 mg dose

Row | SMILES | AUC [ng·h/mL] | Cmax [ng/mL]
1 | CO[C@H]1/C=C/O[C@@]2(C)Oc3c(C)c(O)c4c(O)c(c5c(nc6cc(C)ccn65)c4c3C2=O)NC(=O)/C(C)=C\C=C\[C@H](C)[C@H](O)[C@@H](C)[C@@H](O)[C@@H](C)[C@H](OC(C)=O)[C@@H]1C [Delta, (2S,16Z,18E,20S,21S,22R,23R,24R,25S,26S,27S,28E)-5,6,21,23,25-pentahydroxy-27-methoxy-2,4,11,16,20,22,24,26-octamethyl-2,7-(epoxypentadeca[1,11,13]trienimino) benzofuro[4,5-e]pyrido[1,2-a]-benzimidazole-1,15(2H)-dione,25-acetate] | 830 | 308.3
2 | CO[C@H]1/C=C/O[C@@]2(C)Oc3c(C)c(O)c4c(O)c(c5c(nc6cc(C)ccn65)c4c3C2=O)NC(=O)/C(C)=C\C=C\[C@H](C)[C@H](O)[C@@H](C)[C@@H](O)[C@@H](C)[C@H](OC(C)=O)[C@@H]1C [Alpha, (2S,16Z,18E,20S,21S,22R,23R,24R,25S,26S,27S,28E)-5,6,21,23,25-pentahydroxy-27-methoxy-2,4,11,16,20,22,24,26-octamethyl-2,7-(epoxypentadeca[1,11,13]trienimino) benzofuro[4,5-e]pyrido[1,2-a]-benzimidazole-1,15(2H)-dione,25-acetate] | 17 | 2.6
